In US20040191907A1, “Cultured cells of Ficus stipulata Thunb. (=Ficus thunbergii) and a method for culturing tissues of the Ficus stipulata Thunb. by using said cultured cells” (HIROSHIMA UNIVERSITY, priority 2001, published 2004):

Tests used:
[1] = test system: cut pieces of the leaf, shoot and root tissues of the Ficus stipulata Thunb.; assay: Experiment 1: polyblast formation from cut pieces cultured on medium containing thidiazuron and/or benzyladenine; format: cell-based; conditions: for Number of cut piece* (cut pieces with polyblast formation × 100/cut piece) / Number of shoots/cut piece: one month after the culturing; for induction of the Ficus stipulata Thunb. (polyblast formation / redifferentiation): culture medium containing at least one of TDZ and/or BA
Method: A culture medium in which the MS culture medium or the WP culture medium was used as a fundamental culture medium and 1% sucrose and 0.3% Gellan Gum were added as the carbonaceuous source and a gelling agent, respectively, was used.
Cut pieces, 0.5˜1 mm long, were prepared from leaf, shoot and root tissues of the Ficus stipulata Thunb. asepatically cultured. The cut pieces of the leaf, shoot and root tissues of the Ficus stipulata Thunb. thus prepared were implanted on a culture medium containing thidiazuron and/or benzyladenine as plant hormones, thereby culturing the Ficus stipulata Thunb. One month after the culturing, it was observed that polyblasts were formed from the cut pieces. The polyblasts were cut out, their cut edge were coated with iondoleacetic acid, and the polyblasts were implanted into the above culture medium or a culture containing pearlite and vermiculite, and allowed to take roots.

[2] = test system: cut pieces from stem apexes, nodes and stem portions of Ficus stipulata Thunb.; assay: Experiment 2: redifferentiation condition, polyblasts and buds formed at stem apex cut pieces; format: cell-based; conditions: for Number of cut pieces* in which polyflasts were formed at a stem apex: of 4 cut pieces; for Number of cut pieces* in which polyflasts were formed at a stem apex / Number of buds formed: six weeks; for Number of buds formed: stem apex; for redifferential state: used as the plant hormone, bright condition, WP culture medium
Method: A redifferentiation condition most suitable for the introduction of a gene into the Ficus stipulata Thunb. was examined, and the gene was tried introduced thereinto.
First, the redifferentiation condition was examined. As the Ficus stipulata Thunb., one sterilized and aseptically subcultured was used. The Ficus stipulata Thunb. aseptically grown (4 to 6 weeks after implanting the cutting) used, and cut pieces were prepared from stem apexes, nodes and stem portions, and implanted in the culture medium. Six weeks later, the number and the shape of buds were observed. In culturing the Ficus stipulata Thunb., 1/3 of a block of Florialite (a mixture of vermiculite and cellulose fibers) was added into a test tube (30×200 mm), to which 15 ml of the MS culture medium or the WP culture medium was added. The test tube was closed with a polypropylene cap, which was placed in an autoclave.
A braird appearing in the Ficus stipulata Thunb. having been aseptically subcultured in an Agripot (a plastic container) was cut by about 2 to 3 cm, its cut section was immersed into a 1 g/l solution (1 g/l) of 4-(3-indolyl)butyric acid, and the cut piece was implanted in the test piece thus prepared, and subjected to 4 to 8 week culturing.
The culturing conditions were: atmospheric temperature 25° C., illumination intensity 30˜40 μEm^−2s^−1, a bright condition of 30˜40μEm^−2s^−1 for 15 hours and a dark condition of 1˜2μEm^−2s^−1 for 9 hours.
The MS culture medium or the WP culture medium was used as a fundamental culture medium. Sucrose 2% was added into each of the culture media, thereby adjusting the pH values of the MS culture medium and the WP culture medium to 5.6 and 5.2, respectively. Further, Gellan Gum 3% was added to the culture medium, and it was autoclaved at 120° C. for 15 minutes, thereby preparing a solid culture medium. As plant hormones, […] (NAA), benzylaminopurine (BA), thidiazuron(TDZ), abscisic acid (ABA) and silver nitrate (AgNO3) were used.

For `c1ccc(CNc2ncnc3nc[nH]c23)cc1` [BA, benzyladenine], the “Number of cut piece* (cut pieces with polyblast formation × 100/cut piece)” value ([1]; BA 9 nM, TDZ 0 nM) was 50, the “Number of shoots/cut piece” value ([1]; BA 9 nM, TDZ 0 nM) was 1.8 ± 2.4 and the “Number of cut piece* (cut pieces with polyblast formation × 100/cut piece)” value ([1]; BA 22 nM, TDZ 0 nM) was 100. For the same compound, the “Number of shoots/cut piece” value ([1]; BA 22 nM, TDZ 0 nM) was 3.5 ± 0.6, the “Number of cut piece* (cut pieces with polyblast formation × 100/cut piece)” value ([1]; BA 36 nM, TDZ 0 nM) was 100 and the “Number of shoots/cut piece” value ([1]; BA 36 nM, TDZ 0 nM) was 2.5 ± 1.0. The “Number of cut piece* (cut pieces with polyblast formation × 100/cut piece)” value ([1]; BA 44 nM, TDZ 0 nM) was 100, the “Number of shoots/cut piece” value ([1]; BA 44 nM, TDZ 0 nM) was 3.8 ± 0.5 and the “induction of the Ficus stipulata Thunb. (polyblast formation / redifferentiation)” value [1] was “could be induced at a high probability”. The “Number of cut pieces* in which polyflasts were formed at a stem apex” value (“Number of cut pieces*” below) ([2]; BA 8.9 nM, TDZ 0 nM) was 2, the “Number of buds formed” value ([2]; BA 8.9 nM, TDZ 0 nM) was 1.8 ± 2.4 and the “Number of cut pieces*” value ([2]; BA 22.2 nM, TDZ 0 nM) was 4. The “Number of buds formed” value ([2]; BA 22.2 nM, TDZ 0 nM) was 3.5 ± 0.6, the “Number of cut pieces*” value ([2]; BA 35.5 nM, TDZ 0 nM) was 4 and the “Number of buds formed” value ([2]; BA 35.5 nM, TDZ 0 nM) was 2.5 ± 1.0. The “Number of cut pieces*” value ([2]; BA 44.4 nM, TDZ 0 nM) was 4, the “Number of buds formed” value ([2]; BA 44.4 nM, TDZ 0 nM) was 3.8 ± 0.5 and the redifferential state [2] was “good redifferential state”.
In the case of `O=C(Nc1ccccc1)Nc1cnns1` [TDZ, thidiazuron], the “Number of cut piece* (cut pieces with polyblast formation × 100/cut piece)” value ([1]; BA 0 nM, TDZ 1 nM) is reported as 100, the “Number of shoots/cut piece” value ([1]; BA 0 nM, TDZ 1 nM) is reported as 1.5 ± 1.0 and the “Number of cut piece* (cut pieces with polyblast formation × 100/cut piece)” value ([1]; BA 0 nM, TDZ 1 × 10^2 nM) is reported as 100. The “Number of shoots/cut piece” value ([1]; BA 0 nM, TDZ 1 × 10^2 nM) was 2.5 ± 0.6, the “Number of cut piece* (cut pieces with polyblast formation × 100/cut piece)” value ([1]; BA 0 nM, TDZ 1 × 10^4 nM) was 100 and the “Number of shoots/cut piece” value ([1]; BA 0 nM, TDZ 1 × 10^4 nM) was 1.5 ± 1.0. For the same compound, the “induction of the Ficus stipulata Thunb. (polyblast formation / redifferentiation)” value [1] was “could be induced at a high probability”, the “Number of cut pieces*” value ([2]; BA 0 nM, TDZ 1 nM) was 4 and the “Number of buds formed” value ([2]; BA 0 nM, TDZ 1 nM) was 1.5 ± 1.0. For the same compound, the “Number of cut pieces*” value ([2]; BA 0 nM, TDZ 10^2 nM) was 4, the “Number of buds formed” value ([2]; BA 0 nM, TDZ 10^2 nM) was 2.5 ± 0.6 and the “Number of cut pieces*” value ([2]; BA 0 nM, TDZ 10^4 nM) was 4. The “Number of buds formed” value ([2]; BA 0 nM, TDZ 10^4 nM) was 1.5 ± 1.0 and the redifferential state [2] was “good redifferential state”.
